Reference: patent US20250059198A1, “BRM DEGRADING COMPOUNDS AND ASSOCIATED METHODS OF USE” (Arvinas Operations, Inc., priority 2021, published 2025)

Molecular target: T1, BRM (Homo sapiens, UniProt P51531)
T1 construct: Western Blot Screen of BRM Degradation in SW1573 Cells; endogenous in cells; host or cells: SW1573 cells
Test: BRM degradation (Dmax and DC50) in SW1573 cells, Western blot screen / In-Cell Western screen
Type: cell-based
Details: overnight (18-20 hours) treatment; for Dmax: read-out: Dmax (%)** (% degraded)
Summary of the method: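 SW1573 cells were treated with compound for 18–20 h (final 0.1% DMSO). BRM was quantified either by Western blot of RIPA lysates or by fixed-cell In-Cell Western (LI-COR, 800/680 nm), each normalised to alpha-tubulin, giving Dmax and DC50.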

T1 sequence (P51531 whole entry): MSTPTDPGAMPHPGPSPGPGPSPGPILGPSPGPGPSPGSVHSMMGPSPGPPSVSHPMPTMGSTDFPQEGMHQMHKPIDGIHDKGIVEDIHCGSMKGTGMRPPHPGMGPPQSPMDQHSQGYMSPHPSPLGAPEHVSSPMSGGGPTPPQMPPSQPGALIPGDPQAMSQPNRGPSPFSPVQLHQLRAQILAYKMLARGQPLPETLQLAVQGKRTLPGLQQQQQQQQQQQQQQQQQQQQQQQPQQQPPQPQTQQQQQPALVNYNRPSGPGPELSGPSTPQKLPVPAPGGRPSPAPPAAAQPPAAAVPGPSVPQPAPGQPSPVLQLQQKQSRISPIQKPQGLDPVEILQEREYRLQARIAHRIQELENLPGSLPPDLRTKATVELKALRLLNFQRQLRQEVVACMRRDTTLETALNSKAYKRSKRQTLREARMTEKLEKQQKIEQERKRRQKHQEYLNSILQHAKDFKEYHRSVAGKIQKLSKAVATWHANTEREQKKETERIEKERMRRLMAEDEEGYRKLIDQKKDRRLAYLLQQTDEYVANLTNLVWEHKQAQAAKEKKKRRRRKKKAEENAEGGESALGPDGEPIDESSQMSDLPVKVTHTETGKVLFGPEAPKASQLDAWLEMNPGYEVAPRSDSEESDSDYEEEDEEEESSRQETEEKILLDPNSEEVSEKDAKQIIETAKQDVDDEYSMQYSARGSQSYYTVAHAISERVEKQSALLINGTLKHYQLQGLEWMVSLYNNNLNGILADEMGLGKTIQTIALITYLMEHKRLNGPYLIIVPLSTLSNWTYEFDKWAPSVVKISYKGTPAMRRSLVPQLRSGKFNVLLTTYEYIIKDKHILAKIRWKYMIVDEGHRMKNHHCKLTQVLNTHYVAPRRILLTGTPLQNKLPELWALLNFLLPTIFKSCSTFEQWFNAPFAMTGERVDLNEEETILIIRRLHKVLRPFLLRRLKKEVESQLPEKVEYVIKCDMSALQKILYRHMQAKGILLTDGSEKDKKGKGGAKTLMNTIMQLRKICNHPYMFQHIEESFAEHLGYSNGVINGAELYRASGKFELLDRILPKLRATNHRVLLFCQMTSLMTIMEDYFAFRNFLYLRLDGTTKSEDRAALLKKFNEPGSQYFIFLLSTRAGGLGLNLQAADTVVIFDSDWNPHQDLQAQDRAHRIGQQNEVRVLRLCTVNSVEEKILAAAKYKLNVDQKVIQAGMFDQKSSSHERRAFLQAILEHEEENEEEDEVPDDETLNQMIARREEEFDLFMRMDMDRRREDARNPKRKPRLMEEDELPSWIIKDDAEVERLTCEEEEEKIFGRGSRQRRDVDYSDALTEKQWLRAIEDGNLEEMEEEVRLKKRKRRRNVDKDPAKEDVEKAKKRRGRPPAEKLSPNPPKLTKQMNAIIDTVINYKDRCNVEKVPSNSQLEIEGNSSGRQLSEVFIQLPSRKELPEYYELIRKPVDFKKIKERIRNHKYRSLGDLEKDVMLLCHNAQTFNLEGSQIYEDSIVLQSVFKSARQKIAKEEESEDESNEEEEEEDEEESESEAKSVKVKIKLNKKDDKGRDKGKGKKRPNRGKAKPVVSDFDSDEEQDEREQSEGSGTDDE

| Structure (SMILES) | DC50 | Dmax |
| --- | --- | --- |
| CC(C)[C@@H](C(=O)N1C[C@H](O)C[C@H]1C(=O)N[C@@H](C)c1ccc(-c2ccnn2C)cc1)c1cc(N2CCC(CN3CCC4(CC3)CC(N3CCO[C@@H](CN5C6CCC5CN(c5cc(-c7ccccc7O)nnc5N)C6)C3)C4)CC2)no1 [Compound 106, (2S,4R)-1-[(2R)-2-{3-[4-({2-[(2R)-2-({3-[3-amino-6-(2-hydroxyphenyl)pyridazin-4-yl]-3,8-diazabicyclo[3.2.1]octan-8-yl}methyl)morpholin-4-yl]-7-azaspiro[3.5]nonan-7-yl}methyl)piperidin-1-yl]-1,2-oxazol-5-yl}-3-methylbutanoyl]-4-hydroxy-N-[(1S)-1-[4-(1-methyl-1H-pyrazol-5-yl)phenyl]ethyl]pyrrolidine-2-carboxamide] | < 2.5 nM | > 75% |
| Cc1ncsc1-c1ccc([C@H](C)NC(=O)[C@@H]2C[C@@H](O)CN2C(=O)[C@@H](c2cc(N3CCN(C(=O)[C@H]4C[C@H](Oc5cc(N6C7CCC6CN(c6cc(-c8ccccc8O)nnc6N)C7)ccn5)C4)CC3)no2)C(C)C)cc1 [Compound 107, (2S,4R)-4-hydroxy-N-[(1S)-1-[4-(4-methyl-1,3-thiazol-5-yl)phenyl]ethyl]-1-[(2R)-3-methyl-2-(3-{4-[(1r,3r)-3-[(4-{3-[3-amino-6-(2-hydroxyphenyl)pyridazin-4-yl]-3,8-diazabicyclo[3.2.1]octan-8-yl}pyridin-2-yl)oxy]cyclobutanecarbonyl]piperazin-1-yl}-1,2-oxazol-5-yl)butanoyl]pyrrolidine-2-carboxamide] | ≥ 30 nM |  |
| Cc1ncsc1-c1ccc([C@H](C)NC(=O)[C@@H]2C[C@@H](O)CN2C(=O)[C@@H](c2cc(N3CCC(OC4CCN(C[C@H]5C[C@@H](N6CCO[C@@H](CN7C8CCC7CN(c7cc(-c9ccccc9O)nnc7N)C8)C6)C5)CC4)CC3)no2)C(C)C)cc1 [Compound 108, (2S,4R)-1-((2R)-2-(3-(4-((1-(((1S,3s)-3-((2R)-2-((3-(3-amino-6-(2-hydroxyphenyl)pyridazin-4-yl)-3,8-diazabicyclo[3.2.1]octan-8-yl)methyl)morpholino)cyclobutyl)methyl)piperidin-4-yl)oxy)piperidin-1-yl)isoxazol-5-yl)-3-methylbutanoyl)-4-hydroxy-N-((S)-1-(4-(4-methylthiazol-5-yl)phenyl)ethyl)pyrrolidine-2-carboxamide] | < 2.5 nM | > 75% |
| CC(C)[C@H](C(=O)N1C[C@H](O)C[C@H]1C(=O)N[C@@H](C)c1ccc(-c2ccnn2C)cc1)c1cc(N2CCC(OC3CCN(CC4CC(N5CCC([C@@H](C)n6cc(C#Cc7cc(-c8ccccc8O)nnc7N)cn6)CC5)C4)CC3)CC2)no1 (stereo partly drawn) [Compound 109, (2S,4R)-1-[(2S)-2-{3-[4-({1-[(3-{4-[(1R)-1-(4-{2-[3-amino-6-(2-hydroxyphenyl)pyridazin-4-yl]ethynyl}-1H-pyrazol-1-yl)ethyl]piperidin-1-yl}cyclobutyl)methyl]piperidin-4-yl}oxy)piperidin-1-yl]-1,2-oxazol-5-yl}-3-methylbutanoyl]-4-hydroxy-N-[(1S)-1-[4-(1-methyl-1H-pyrazol-5-yl)phenyl]ethyl]pyrrolidine-2-carboxamide] | ≥ 30 nM |  |
| CC(C)[C@@H](C(=O)N1C[C@H](O)C[C@H]1C(=O)N[C@@H](C)c1ccc(-c2ccnn2C)cc1)c1cc(N2CCC(OC3CCN(CC4CC(N5CCC([C@@H](C)n6cc(C#Cc7cc(-c8ccccc8O)nnc7N)cn6)CC5)C4)CC3)CC2)no1 (stereo partly drawn) [Compound 110, (2S,4R)-1-[(2R)-2-{3-[4-({1-[(3-{4-[(1R)-1-(4-{2-[3-amino-6-(2-hydroxyphenyl)pyridazin-4-yl]ethynyl}-1H-pyrazol-1-yl)ethyl]piperidin-1-yl}cyclobutyl)methyl]piperidin-4-yl}oxy)piperidin-1-yl]-1,2-oxazol-5-yl}-3-methylbutanoyl]-4-hydroxy-N-[(1S)-1-[4-(1-methyl-1H-pyrazol-5-yl)phenyl]ethyl]pyrrolidine-2-carboxamide] | < 2.5 nM | > 75% |
